The assay addresses Maltase-glucoamylase (Homo sapiens, UniProt O43451). Nature of the assay: Inhibition of recombinant human maltase glucoamylase N-terminal catalytic domain.

SMILES strings stand for the structures.

Chain of Maltase-glucoamylase (O43451 whole entry, the tested form may be a part): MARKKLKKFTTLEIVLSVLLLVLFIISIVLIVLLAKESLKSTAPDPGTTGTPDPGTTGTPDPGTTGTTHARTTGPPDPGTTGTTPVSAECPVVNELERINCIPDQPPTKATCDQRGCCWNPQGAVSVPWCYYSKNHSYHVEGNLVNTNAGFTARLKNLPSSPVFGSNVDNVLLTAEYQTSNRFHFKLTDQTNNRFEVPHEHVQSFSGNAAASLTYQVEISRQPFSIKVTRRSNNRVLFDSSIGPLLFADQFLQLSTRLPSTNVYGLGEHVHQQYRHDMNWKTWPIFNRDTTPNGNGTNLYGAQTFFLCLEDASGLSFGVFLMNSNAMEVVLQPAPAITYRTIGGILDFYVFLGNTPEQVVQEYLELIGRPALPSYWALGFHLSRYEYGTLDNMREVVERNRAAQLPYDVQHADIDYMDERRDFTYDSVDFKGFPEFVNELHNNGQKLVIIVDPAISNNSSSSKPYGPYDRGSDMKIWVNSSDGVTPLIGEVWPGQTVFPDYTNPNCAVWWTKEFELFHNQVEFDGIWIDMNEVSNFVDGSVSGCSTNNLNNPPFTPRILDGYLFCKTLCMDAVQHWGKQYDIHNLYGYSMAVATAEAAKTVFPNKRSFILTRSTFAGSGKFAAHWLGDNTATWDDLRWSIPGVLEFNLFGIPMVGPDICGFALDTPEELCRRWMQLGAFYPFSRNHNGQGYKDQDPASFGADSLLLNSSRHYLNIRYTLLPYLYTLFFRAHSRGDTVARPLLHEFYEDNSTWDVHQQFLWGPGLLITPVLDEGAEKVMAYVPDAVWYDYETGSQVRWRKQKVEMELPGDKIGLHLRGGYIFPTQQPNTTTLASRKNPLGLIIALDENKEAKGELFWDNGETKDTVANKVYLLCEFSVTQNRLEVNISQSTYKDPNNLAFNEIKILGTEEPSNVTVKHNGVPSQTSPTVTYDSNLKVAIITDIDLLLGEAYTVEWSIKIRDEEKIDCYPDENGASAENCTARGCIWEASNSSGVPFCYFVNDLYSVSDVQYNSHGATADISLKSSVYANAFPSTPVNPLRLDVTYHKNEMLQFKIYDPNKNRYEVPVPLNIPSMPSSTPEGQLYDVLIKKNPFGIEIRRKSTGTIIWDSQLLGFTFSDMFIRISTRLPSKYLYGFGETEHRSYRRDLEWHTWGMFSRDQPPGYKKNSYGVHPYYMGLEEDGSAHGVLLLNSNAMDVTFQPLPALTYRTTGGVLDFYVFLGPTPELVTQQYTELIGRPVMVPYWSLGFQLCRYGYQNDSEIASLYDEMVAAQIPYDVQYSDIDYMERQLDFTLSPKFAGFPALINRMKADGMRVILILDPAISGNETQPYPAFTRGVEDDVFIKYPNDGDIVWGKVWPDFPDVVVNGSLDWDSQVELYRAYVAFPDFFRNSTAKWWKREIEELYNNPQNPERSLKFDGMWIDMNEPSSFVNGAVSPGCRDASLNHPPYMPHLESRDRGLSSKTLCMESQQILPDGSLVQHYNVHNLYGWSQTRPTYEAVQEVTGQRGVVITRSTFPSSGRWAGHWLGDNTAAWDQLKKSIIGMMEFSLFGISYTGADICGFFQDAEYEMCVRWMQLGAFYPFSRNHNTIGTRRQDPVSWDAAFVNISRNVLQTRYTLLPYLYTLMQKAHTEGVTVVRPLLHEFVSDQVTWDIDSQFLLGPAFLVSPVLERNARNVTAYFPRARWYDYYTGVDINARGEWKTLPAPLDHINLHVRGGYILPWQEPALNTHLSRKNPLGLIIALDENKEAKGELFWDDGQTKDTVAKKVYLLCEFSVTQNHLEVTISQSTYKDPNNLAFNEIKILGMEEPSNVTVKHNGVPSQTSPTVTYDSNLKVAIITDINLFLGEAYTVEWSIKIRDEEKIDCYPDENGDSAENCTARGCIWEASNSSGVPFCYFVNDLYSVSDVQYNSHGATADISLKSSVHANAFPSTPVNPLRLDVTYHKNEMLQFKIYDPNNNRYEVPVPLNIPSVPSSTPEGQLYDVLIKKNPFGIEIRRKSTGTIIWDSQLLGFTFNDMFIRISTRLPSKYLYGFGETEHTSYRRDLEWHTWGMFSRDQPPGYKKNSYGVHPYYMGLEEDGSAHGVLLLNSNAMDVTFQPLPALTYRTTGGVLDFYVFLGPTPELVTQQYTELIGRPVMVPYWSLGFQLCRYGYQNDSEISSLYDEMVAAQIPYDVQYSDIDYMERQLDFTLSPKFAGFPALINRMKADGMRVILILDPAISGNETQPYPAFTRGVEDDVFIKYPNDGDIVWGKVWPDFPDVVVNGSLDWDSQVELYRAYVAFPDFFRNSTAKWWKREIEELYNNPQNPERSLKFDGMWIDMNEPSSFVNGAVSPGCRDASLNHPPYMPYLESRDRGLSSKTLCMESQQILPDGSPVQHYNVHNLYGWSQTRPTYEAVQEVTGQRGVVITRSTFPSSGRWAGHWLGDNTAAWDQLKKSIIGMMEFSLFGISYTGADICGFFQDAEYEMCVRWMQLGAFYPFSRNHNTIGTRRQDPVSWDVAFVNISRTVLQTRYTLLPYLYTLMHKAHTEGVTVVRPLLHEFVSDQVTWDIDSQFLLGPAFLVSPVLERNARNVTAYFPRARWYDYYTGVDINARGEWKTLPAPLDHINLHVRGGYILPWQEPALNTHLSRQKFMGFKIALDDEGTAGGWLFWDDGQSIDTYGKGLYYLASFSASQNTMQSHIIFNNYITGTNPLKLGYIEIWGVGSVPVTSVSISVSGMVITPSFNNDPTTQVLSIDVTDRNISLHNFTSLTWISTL

With `O=S(=O)([O-])O[C@@H]([C@H](O)[C@H](O)[C@H](O)CO)[C@H](O)C[S+]1C[C@@H](O)[C@H](O)[C@H]1CO` (some centres undefined), the Ki (commonly the equilibrium dissociation constant of an inhibitor or competing ligand from its target) is 200 nM.

Consider `O=S(=O)([O-])O[C@@H]([C@H](O)[C@@H](O)[C@@H](O)CO)[C@H](O)C[S+]1C[C@@H](O)[C@H](O)[C@H]1CO` (some centres undefined), for which the inhibition constant (Ki) was 100 nM.

With `O=S(=O)([O-])O[C@@H]([C@H](O)[C@@H](O)[C@H](O)CO)[C@H](O)C[S+]1C[C@@H](O)[C@H](O)[C@H]1CO` (some centres undefined), the inhibitory constant (Ki) was 130 nM.

Turning to `O=S(=O)([O-])O[C@@H]([C@H](O)[C@H](O)[C@@H](O)CO)[C@H](O)C[S+]1C[C@@H](O)[C@H](O)[C@H]1CO` (some centres undefined) [KOTALANOL], the inhibitory constant (Ki) came out at 190 nM.

For the origin of these results see ChEMBL document CHEMBL1156241, “Synthesis of a biologically active isomer of kotalanol, a naturally occurring glucosidase inhibitor” (Bioorg Med Chem, 2010).
